Test results as given in US9809598B2 (Merck Patent GmbH, priority 2014, dated 2017).
Structures can show the parent of a compound that is named as a salt.

Key:
Tankyrases = settings: read-out: EC50 [M] TNKS cellular assay; DLD1 cells, 24 hours, Axin2 increase
TNKS2 = molecular target: T1, TNKS2 (Homo sapiens, UniProt Q9H2K2); assay: TNKS2 activity ELISA (autoparsylation assay); format: biochemical; settings: GST-tagged Tnks-2 (873-1166 aa); read-out: IC50 [M] TNKS2 ELISA
T1 construct: GST-tagged Tnks-2 (873-1166 aa, prepared in-house); made in house
T1 sequence (Q9H2K2 873-1166): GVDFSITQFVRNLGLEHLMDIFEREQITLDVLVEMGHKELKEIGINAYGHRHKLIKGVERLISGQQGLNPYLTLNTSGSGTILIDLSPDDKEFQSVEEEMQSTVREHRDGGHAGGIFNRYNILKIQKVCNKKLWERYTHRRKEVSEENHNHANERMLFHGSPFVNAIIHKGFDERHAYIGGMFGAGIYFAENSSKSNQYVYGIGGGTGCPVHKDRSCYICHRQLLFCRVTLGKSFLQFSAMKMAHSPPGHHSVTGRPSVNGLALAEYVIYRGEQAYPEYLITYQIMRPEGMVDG
Method: (§1) Description of the TNKS1 and TNKS2 ELISA Assay
(§2) Biochemical Activity Testing of TNKS 1 and 2: Activity ELISA (Autoparsylation Assay)
(§3) For analysis of autoparsylation activity of TNKS 1 and 2 an activity ELISA iss performed: In the first step GST tagged TNKS is captured on a Glutathione coated plate. Then the activity assay with biotinylated NAD is performed in the absence/presence of the compounds. During the enzymatic reaction GST tagged TNKS transfers biotinylated ADP-ribose to itself from biotinylated NAD as co-substrate. For the detection streptavidin-HRP conjugate is added that binds to the biotinylated TNKS and is thereby captured to the plates. The amount of biotinylated resp. autoparsylated TNKS is detected with a luminescence substrate for HRP. The level of the luminescence signal correlats directly with the amount of autoparsylated TNKS and therefore with activity of TNKS.
(§4) The activity ELISA is performed in 384 well Glutathione coated microtiter plates (Express capture Glutathione coated plate, Biocat, Heidelberg, Germany). The plates are pre-equilibrated with PBS. […] The plates are washed 3 times with PBS-Tween-20. The wells are blocked by incubation at room temperature for 20 minutes with 50 μl blocking buffer (PBS, 0.05% Tween-20, 0.5% BSA). Afterwards the plates are washed 3 times with PBS-Tween-20. […] The reaction is stopped by 3 times washing with PBS-Tween-20. For the detection 50 μl of 20 ng/μl Streptavidin, HRP conjugate (MoBiTec, Göttingen, Germany) in PBS/0.05% Tween-20/0.01% BSA are added and the plates are incubated for 30 minutes at room temperature. After three times washing with PBS-Tween-20 50 μl of SuperSignal ELISA Femto Maximum sensitivity substrate solution (ThermoFisherScientific (Pierce), Bonn, Germany) are added. Following a 1 minute incubation at room temperature luminescence signals are measured with an Envision multimode reader (Perkin Elmer LAS Germany GmbH) at 700 nm. The full value used is the inhibitor-free reaction. […] The inhibitory values (IC50) are determined using either the program Symyx Assay Explorer® or Condosseo® from GeneData.

TNKS1 = molecular target: T2, TNKS1 (Homo sapiens, UniProt O95271); assay: TNKS1 activity ELISA (autoparsylation assay); format: biochemical; settings: GST-tagged Tnks-1 (1023-1327 aa)
T2 construct: GST-tagged Tnks-1 (1023-1327 aa, prepared in-house); made in house
T2 sequence (O95271 1023-1327): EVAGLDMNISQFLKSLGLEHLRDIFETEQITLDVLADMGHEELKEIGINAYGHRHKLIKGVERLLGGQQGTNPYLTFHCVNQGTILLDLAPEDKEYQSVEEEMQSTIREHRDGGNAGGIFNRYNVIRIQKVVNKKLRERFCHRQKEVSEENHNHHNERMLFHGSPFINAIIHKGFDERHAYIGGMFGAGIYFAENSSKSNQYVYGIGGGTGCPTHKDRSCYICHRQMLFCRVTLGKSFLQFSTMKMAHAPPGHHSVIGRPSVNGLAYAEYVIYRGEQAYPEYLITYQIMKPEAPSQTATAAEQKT
Method: as §1, §2, §3, §4

SMILES | EC50 (Tankyrases) [M] | IC50 (TNKS2) [M] | IC50 (TNKS1) [nM]
COc1ccc(C(=O)C2CCN(C(=O)CCCc3cn4cccc4c(=O)[nH]3)CC2)cc1 [Compound C2, 3-{4-[4-(4-Methoxy-benzoyl)-piperidin-1-yl]-4-oxo-butyl}-2H-pyrrolo[1,2-a]-pyrazin-1-one] | 5e-10 | 1.4e-10 | 0.24
COc1ccc(C(=O)C2CCN(C(=O)CCCc3cn4cccc4c(=O)[nH]3)CC2)cc1C [Compound C4, 3-{4-[4-(4-Methoxy-3-methyl-benzoyl)-piperidin-1-yl]-4-oxo-butyl}-2H-pyrrolo[1,2-a]pyrazin-1-one] | 3.4e-10 | 1.5e-10 | 0.14
COc1ccc(C(=O)C2CCN(C(=O)CCCc3cn4c(F)ccc4c(=O)[nH]3)CC2)cc1 [Compound C9, 6-Fluoro-3-{4-[4-(4-methoxy-benzoyl)-piperidin-1-yl]-4-oxo-butyl}-2H-pyrrolo[1,2-a]pyrazin-1-one] | 7.2e-10 | 1.3e-10 | 0.2
COc1ccc(C(=O)C2CCN(C(=O)CCCc3cn4cncc4c(=O)[nH]3)CC2)cc1 [Compound C10, 6-{4-[4-(4-Methoxy-benzoyl)-piperidin-1-yl]-4-oxo-butyl}-7H-imidazo[1,5-a]-pyrazin-8-one] | 6.7e-09 | 1.3e-10 | 0.32
COc1ccc(C(=O)C2CCN(C(=O)CCCc3cn4nc(C)cc4c(=O)[nH]3)CC2)cc1 [Compound C12, 6-{4-[4-(4-Methoxy-benzoyl)-piperidin-1-yl]-4-oxo-butyl}-2-methyl-5H-pyrazolo[1,5-a]pyrazin-4-one] | 4.9e-10 | 1.4e-10 | 0.13
COc1ccc(C(=O)C2CCN(C(=O)CCCc3cn4ccnc4c(=O)[nH]3)CC2)cc1 [Compound C13, 6-{4-[4-(4-Methoxy-benzoyl)-piperidin-1-yl]-4-oxo-butyl}-7H-imidazo[1,2-a]-pyrazin-8-one] | 4.1e-07 | 7.4e-10 | 1.2
COc1ccc(C(=O)C2CCN(C(=O)CCCc3nc4c(C)scc4c(=O)[nH]3)CC2)cn1 [Compound C114] |  |  | 0.68
Cn1cc(C(=O)C2CCN(C(=O)CCCc3nn4cccc4c(=O)[nH]3)CC2)cn1 [Compound C146, 2-{4-[4-(1-Methyl-1H-pyrazole-4-carbonyl)-piperidin-1-yl]-4-oxo-butyl}-3H-pyrrolo[2,1-f][1,2,4]triazin-4-one] | 8.7e-08 | 1.4e-09 | 2.2
CC(C)(O)c1ccc(C(=O)C2CCN(C(=O)CCCc3nc4c(c(=O)[nH]3)COCC4)CC2)cc1 [Compound C200, 2-(4-{4-[4-(1-Hydroxy-1-methyl-ethyl)-benzoyl]-piperidin-1-yl}-4-oxo-butyl)-3,5,7,8-tetrahydro-pyrano[4,3-d]pyrimidin-4-one] | 3.7e-06 | 2.2e-08 | 170
Cn1cc(C(=O)C2CCN(C(=O)CCCc3cn4cncc4c(=O)[nH]3)CC2)cn1 [Compound C207, 6-{4-[4-(1-Methylpyrazole-4-carbonyl)-1-piperidyl]-4-oxo-butyl}-7H-imidazo[1,5-a]pyrazin-8-one] | 1.1e-06 | 2.8e-09 | 7.1
CC(C)n1cc(C(=O)C2CCN(C(=O)CCCc3nc4c(cnn4C)c(=O)[nH]3)CC2)cn1 [Compound C218, 6-{4-[4-(1-Isopropyl-1H-pyrazole-4-carbonyl)-piperidin-1-yl]-4-oxo-butyl}-1-methyl-1,5-dihydro-pyrazolo[3,4-d]pyrimidin-4-one] | 1.4e-07 | 8.5e-10 | 2
CCn1cc(C(=O)C2CCN(C(=O)CCCc3nc4c(c(=O)[nH]3)COCC4)CC2)cn1 [Compound C228, 2-{4-[4-(1-Ethyl-1H-pyrazole-4-carbonyl)-piperidin-1-yl]-4-oxo-butyl}-3,5,7,8-tetrahydro-pyrano[4,3-d]pyrimidin-4-one] | 2.9e-06 | 2.2e-09 | 14
COc1ccc(C(=O)C2CCN(C(=O)CCCc3nc(C)c(C)c(=O)[nH]3)CC2)cn1 [Compound C241, 2-{4-[4-(6-Methoxy-pyridine-3-carbonyl)-piperidin-1-yl]-4-oxo-butyl}-5,6-dimethyl-3H-pyrimidin-4-one] | 3.5e-08 | 4.9e-09 | 11
Cc1nc(CCCC(=O)N2CCC(C(=O)c3cnn(C)c3)CC2)[nH]c(=O)c1C [Compound C242, 5,6-Dimethyl-2-{4-[4-(1-methyl-1H-pyrazole-4-carbonyl)-piperidin-1-yl]-4-oxo-butyl}-3H-pyrimidin-4-one] | 8.8e-07 | 7.1e-09 | 24
COc1ccc(C(=O)C2CCN(C(=O)CCCc3nncc4ccccc34)CC2)cc1 [Compound C250, 1-[4-(4-Methoxy-benzoyl)-piperidin-1-yl]-4-phthalazin-1-yl-butan-1-one] | 4.6e-08 | 1.1e-09 | 2.8
CCc1cc(=O)[nH]c(CCCC(=O)N2CCC(C(=O)c3ccc(OC)cc3)CC2)n1 [Compound C251, 6-Ethyl-2-{4-[4-(4-methoxy-benzoyl)-piperidin-1-yl]-4-oxo-butyl}-3H-pyrimidin-4-one] | 7e-08 | 2.9e-09 | 7.8
CCc1cc(=O)[nH]c(CCCC(=O)N2CCC(C(=O)c3ccc(F)cc3)CC2)n1 [Compound C252, 6-Ethyl-2-{4-[4-(4-fluoro-benzoyl)-piperidin-1-yl]-4-oxo-butyl}-3H-pyrimidin-4-one] |  | 1.7e-08 | 35
CCc1cc(=O)[nH]c(CCCC(=O)N2CCC(C(=O)c3ccc(OC)nc3)CC2)n1 [Compound C253, 6-Ethyl-2-{4-[4-(6-methoxy-pyridine-3-carbonyl)-piperidin-1-yl]-4-oxo-butyl}-3H-pyrimidin-4-one] | 7e-07 | 1.9e-08 | 31
COc1ccc(C(=O)C2CCN(C(=O)CCCc3nc(C(C)C)cc(=O)[nH]3)CC2)cc1 [Compound C254, 6-Isopropyl-2-{4-[4-(4-methoxy-benzoyl)-piperidin-1-yl]-4-oxo-butyl}-3H-pyrimidin-4-one trifluoroacetate] | 2.6e-07 | 1.5e-08 | 28
CC(C)c1cc(=O)[nH]c(CCCC(=O)N2CCC(C(=O)c3ccc(F)cc3)CC2)n1 [Compound C255, 2-{4-[4-(4-Fluorobenzoyl)-1-piperidyl]-4-oxo-butyl}-4-isopropyl-1H-pyrimidin-6-one trifluoroacetate] | 2.7e-06 | 4.9e-08 | 110
COc1ccc(C(=O)C2CCN(C(=O)CCCc3nc(C(C)C)cc(=O)[nH]3)CC2)cn1 [Compound C256, 4-Isopropyl-2-{4-[4-(6-methoxypyridine-3-carbonyl)-1-piperidyl]-4-oxo-butyl}-1H-pyrimidin-6-one trifluoroacetate] | 2.6e-06 | 6.5e-08 | 160
CC(C)c1cc(=O)[nH]c(CCCC(=O)N2CCC(C(=O)c3cnn(C)c3)CC2)n1 [Compound C257, 4-Isopropyl-2-{4-[4-(1-methylpyrazole-4-carbonyl)-1-piperidyl]-4-oxo-butyl}-1H-pyrimidin-6-one trifluoroacetate] | 9.3e-06 | 5.8e-08 | 110
COc1ccc(C(=O)C2CCN(C(=O)CCCc3noc4ccccc34)CC2)cc1 [Compound C258, 4-(1,2-Benzoxazol-3-yl)-1-[4-(4-methoxybenzoyl)-1-piperidyl]butan-1-one] |  | 9.5e-08 | 150
O=C(c1ccc(F)cc1)C1CCN(C(=O)CCCc2noc3ccccc23)CC1 [Compound C259, 4-(1,2-Benzoxazol-3-yl)-1-[4-(4-fluorobenzoyl)-1-piperidyl]butan-1-one] |  | 4.6e-07 | 730
O=C(c1ccc(F)c(F)c1)C1CCN(C(=O)CCCc2nc3c(c(=O)[nH]2)COCC3)CC1 [Compound C262, 2-{4-[4-(3,4-Difluorobenzoyl)-1-piperidyl]-4-oxo-butyl}-3,5,7,8-tetrahydro-pyrano[4,3-d]pyrimidin-4-one] |  | 1.2e-09 | 7.1
CC(F)(F)c1ccc(C(=O)C2CCN(C(=O)CCCc3nc4c(c(=O)[nH]3)COCC4)CC2)cc1 [Compound C263, 2-{4-{4-[4-(1,1-Difluoroethyl)benzoyl]-1-piperidyl}-4-oxo-butyl}-3,5,7,8-tetra-hydropyrano[4,3-d]pyrimidin-4-one] |  | 3.3e-10 | 5.1
